# Data: ChEMBL document CHEMBL1201862, “PubChem BioAssay data set” (2004)
# Values joined by “and” are separate entries in the source; they are usually repeats but may differ in a detail not shown here. Equal values may be shown once. Active and inactive are the calls of the source.
# Legend:
# [1] = biological target: T1, Mannose-6-phosphate isomerase (Homo sapiens, UniProt P34949); experiment: human PMI inhibitors, high substrate, primary screen, biochemical, fluorescence intensity, high mannose 6-phosphate (AID 1220)
# T1 sequence (P34949 whole entry): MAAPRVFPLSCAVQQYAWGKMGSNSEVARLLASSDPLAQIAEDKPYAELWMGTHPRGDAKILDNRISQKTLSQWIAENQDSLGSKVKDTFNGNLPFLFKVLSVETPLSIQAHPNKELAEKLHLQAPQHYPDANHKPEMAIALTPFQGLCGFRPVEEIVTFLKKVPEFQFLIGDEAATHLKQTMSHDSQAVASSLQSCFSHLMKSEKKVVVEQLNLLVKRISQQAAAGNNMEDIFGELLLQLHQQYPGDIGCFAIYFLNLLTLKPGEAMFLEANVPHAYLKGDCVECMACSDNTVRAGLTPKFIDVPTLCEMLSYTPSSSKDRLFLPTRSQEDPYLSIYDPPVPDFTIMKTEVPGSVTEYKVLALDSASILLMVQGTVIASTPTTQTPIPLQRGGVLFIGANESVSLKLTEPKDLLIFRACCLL
# [2] = biological target: 1-acylglycerol-3-phosphate O-acyltransferase ABHD5/Perilipin-5 (Homo sapiens, UniProt Q00G26+Q8WTS1); experiment: Luminescence-based biochemical high throughput dose response assay for inhibitors of the interaction of the lipase co-activator protein, abhydrolase domain containing 5 (ABHD5) with perilipin-5 (MLDP; PLIN5) (2K validation set). [Related pubchem assays (depositor defined):AID493035, AID493241]
# 1-acylglycerol-3-phosphate O-acyltransferase ABHD5/Perilipin-5, sequence (Q00G26 whole entry, the tested form may be a part): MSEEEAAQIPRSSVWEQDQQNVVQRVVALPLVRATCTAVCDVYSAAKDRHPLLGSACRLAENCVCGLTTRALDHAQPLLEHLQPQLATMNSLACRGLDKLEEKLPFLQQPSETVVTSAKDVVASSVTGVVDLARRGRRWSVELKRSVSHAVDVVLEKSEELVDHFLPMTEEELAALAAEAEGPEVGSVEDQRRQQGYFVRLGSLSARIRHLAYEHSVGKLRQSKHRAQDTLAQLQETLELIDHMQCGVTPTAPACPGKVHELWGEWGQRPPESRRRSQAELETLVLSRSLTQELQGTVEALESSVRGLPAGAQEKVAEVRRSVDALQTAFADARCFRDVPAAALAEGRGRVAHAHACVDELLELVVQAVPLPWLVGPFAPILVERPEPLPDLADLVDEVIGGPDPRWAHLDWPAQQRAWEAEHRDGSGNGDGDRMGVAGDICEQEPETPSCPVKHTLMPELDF
# 1-acylglycerol-3-phosphate O-acyltransferase ABHD5/Perilipin-5, sequence (Q8WTS1 whole entry, the tested form may be a part): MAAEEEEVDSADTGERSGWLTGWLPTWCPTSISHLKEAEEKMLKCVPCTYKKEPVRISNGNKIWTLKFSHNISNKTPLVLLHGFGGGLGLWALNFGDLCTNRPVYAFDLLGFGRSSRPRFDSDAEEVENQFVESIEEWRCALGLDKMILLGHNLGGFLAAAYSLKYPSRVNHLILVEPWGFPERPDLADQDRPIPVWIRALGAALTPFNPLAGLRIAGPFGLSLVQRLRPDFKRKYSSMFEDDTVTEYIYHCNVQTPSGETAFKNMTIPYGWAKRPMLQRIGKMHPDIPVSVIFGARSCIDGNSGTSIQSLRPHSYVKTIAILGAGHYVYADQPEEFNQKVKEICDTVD
# Perilipin-1/ABHD5 = Perilipin-1/ABHD5 (Homo sapiens, UniProt O60240+Q8WTS1); experiment: Luminescence-based biochemical high throughput dose response assay for inhibitors of the interaction of the lipase co-activator protein, abhydrolase domain containing 5 (ABHD5) with perilipin-1 (PLIN1) (2K validation set). [Related pubchem assays (depositor defined):AID493027, AID493057]
# Perilipin-1/ABHD5, sequence (Q8WTS1 whole entry, the tested form may be a part): as above
# Perilipin-1/ABHD5, sequence (O60240 whole entry, the tested form may be a part): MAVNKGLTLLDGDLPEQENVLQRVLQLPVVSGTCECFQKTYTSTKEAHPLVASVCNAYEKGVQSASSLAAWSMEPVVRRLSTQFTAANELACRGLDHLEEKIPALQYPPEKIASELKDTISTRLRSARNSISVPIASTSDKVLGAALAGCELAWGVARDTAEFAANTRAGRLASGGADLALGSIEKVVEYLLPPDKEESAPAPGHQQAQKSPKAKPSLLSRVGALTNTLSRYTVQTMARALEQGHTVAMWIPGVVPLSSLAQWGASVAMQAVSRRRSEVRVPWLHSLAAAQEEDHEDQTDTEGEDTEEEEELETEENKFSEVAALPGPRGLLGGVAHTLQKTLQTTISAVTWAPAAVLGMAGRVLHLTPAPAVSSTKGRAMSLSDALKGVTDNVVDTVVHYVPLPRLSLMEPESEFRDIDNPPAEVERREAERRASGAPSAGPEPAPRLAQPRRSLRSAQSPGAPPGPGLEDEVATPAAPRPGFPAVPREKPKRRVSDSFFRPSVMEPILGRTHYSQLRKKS
# Genome polyprotein = Genome polyprotein (dengue virus type 2, UniProt P29990); experiment: Dengue-2 NS5 methyltransferase inhibitors, primary screen, biochemical, confirmation dose response (AID 588689); assay type: functional
# [3] = biological target: T2, Polyadenylate-binding protein 1 (Homo sapiens, UniProt P11940); experiment: PABP1 MLLE–PAM2 interaction inhibitors, dose response, miRNA deadenylation inhibitor project, biochemical, fluorescence polarization, Cy5-PAM2 peptide, secondary (AID 602260); assay type: functional; conditions: read-out: IC50_Mean
# T2 sequence (P11940 whole entry): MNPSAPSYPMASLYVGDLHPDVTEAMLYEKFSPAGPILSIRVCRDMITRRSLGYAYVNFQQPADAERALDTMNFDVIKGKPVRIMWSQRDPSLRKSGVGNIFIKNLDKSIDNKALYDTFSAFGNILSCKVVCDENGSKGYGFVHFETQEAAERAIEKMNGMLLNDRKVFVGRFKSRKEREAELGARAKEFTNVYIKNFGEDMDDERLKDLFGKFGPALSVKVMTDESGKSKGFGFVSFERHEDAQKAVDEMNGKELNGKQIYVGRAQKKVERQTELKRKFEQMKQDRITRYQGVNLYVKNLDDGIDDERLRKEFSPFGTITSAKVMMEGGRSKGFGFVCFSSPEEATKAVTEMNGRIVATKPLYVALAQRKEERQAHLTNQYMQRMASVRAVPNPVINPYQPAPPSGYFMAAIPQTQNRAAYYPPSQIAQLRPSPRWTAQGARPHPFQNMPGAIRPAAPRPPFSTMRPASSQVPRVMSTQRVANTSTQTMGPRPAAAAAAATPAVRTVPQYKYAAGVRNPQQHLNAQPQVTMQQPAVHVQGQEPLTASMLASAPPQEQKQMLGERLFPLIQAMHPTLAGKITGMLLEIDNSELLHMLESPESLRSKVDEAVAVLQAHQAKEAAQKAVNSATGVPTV
# [4] = biological target: T2, Polyadenylate-binding protein 1; experiment: PABP1 MLLE–PAM2 binding inhibitor potency, dose response, biochemical, fluorescence polarization, FITC-PAM2 peptide (AID 602259); assay type: functional; conditions: read-out: IC50_Mean
# [5] = biological target: Alkaline phosphatase, placental type (Homo sapiens, UniProt P05187); experiment: PLAP enzyme inhibitors, confirmation, biochemical, luminescence (AID 1512); assay type: functional
# Alkaline phosphatase, placental type, sequence (P05187 whole entry): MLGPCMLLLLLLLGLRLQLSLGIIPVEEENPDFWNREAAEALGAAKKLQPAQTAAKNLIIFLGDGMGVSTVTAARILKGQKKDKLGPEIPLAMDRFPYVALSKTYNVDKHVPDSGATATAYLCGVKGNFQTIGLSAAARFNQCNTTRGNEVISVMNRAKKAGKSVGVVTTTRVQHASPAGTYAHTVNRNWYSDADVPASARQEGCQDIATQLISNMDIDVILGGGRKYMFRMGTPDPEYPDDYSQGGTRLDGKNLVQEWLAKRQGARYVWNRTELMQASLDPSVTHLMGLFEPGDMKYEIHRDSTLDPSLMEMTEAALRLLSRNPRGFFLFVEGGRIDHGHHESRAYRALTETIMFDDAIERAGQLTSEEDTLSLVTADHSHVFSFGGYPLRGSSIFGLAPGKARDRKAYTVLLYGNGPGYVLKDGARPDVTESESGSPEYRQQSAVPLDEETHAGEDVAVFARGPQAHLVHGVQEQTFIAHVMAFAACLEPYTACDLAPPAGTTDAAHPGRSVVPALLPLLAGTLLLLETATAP
# [6] = biological target: T3, Alkaline phosphatase, tissue-nonspecific isozyme (Homo sapiens, UniProt P05186); experiment: human TNAP enzyme inhibitors, SAR follow-up, biochemical, luminescent, dose response (AID 1056)
# T3 sequence (P05186 whole entry): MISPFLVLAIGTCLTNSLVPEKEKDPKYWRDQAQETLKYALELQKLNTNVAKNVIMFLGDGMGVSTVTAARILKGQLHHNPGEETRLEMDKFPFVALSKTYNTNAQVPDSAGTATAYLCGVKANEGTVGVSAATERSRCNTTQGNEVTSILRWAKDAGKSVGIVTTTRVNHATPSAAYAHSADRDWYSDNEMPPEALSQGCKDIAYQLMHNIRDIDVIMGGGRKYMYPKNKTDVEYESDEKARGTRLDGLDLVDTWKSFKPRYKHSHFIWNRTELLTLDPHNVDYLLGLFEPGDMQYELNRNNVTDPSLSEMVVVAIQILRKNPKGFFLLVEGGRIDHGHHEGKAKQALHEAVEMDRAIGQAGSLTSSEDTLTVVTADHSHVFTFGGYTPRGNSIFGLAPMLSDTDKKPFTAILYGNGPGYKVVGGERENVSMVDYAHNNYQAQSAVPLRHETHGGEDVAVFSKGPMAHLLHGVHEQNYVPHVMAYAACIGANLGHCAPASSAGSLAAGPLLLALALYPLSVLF
# [7] = biological target: Type-1 angiotensin II receptor (Homo sapiens, UniProt P30556); experiment: AT1 receptor agonists, dose response, selectivity assay for APJ receptor agonist project, cell-based, uHTS hits (AID 488865); assay type: functional;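 note: beta-arrestin recruitment to AT1 measured by enzyme fragment complementation luminescence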
# [8] = biological target: Low molecular weight phosphotyrosine protein phosphatase (Homo sapiens, UniProt P24666); assay type: functional; conditions: read-out: IC50_Mean;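 note: Dose-response confirmation assay measuring inhibition of LMPTP enzyme activity by fluorescence intensity read-out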
# Low molecular weight phosphotyrosine protein phosphatase, sequence (P24666 whole entry): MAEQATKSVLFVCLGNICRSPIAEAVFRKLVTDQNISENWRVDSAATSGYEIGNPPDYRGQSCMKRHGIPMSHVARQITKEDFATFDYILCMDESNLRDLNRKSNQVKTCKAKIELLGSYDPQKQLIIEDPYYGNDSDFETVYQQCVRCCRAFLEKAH
# [9] = biological target: DNA dC->dU-editing enzyme APOBEC-3A (Homo sapiens, UniProt P31941); experiment: Dose Response confirmation of small molecule APOBEC3A DNA Deaminase Inhibitors via a fluorescence-based single-stranded DNA deaminase assay. [Related pubchem assays (depositor defined):AID493011, AID493024]; assay type: functional
# DNA dC->dU-editing enzyme APOBEC-3A, sequence (P31941 whole entry): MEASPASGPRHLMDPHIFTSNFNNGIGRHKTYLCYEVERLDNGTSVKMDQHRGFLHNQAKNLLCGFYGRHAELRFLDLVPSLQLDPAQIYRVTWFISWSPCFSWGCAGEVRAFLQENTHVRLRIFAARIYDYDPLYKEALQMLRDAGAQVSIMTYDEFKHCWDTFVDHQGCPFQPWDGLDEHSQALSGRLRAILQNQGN
# [10] = biological target: DNA dC->dU-editing enzyme APOBEC-3G (Homo sapiens, UniProt Q9HC16); assay type: functional;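 note: Dose-response counterscreen measuring inhibition of APOBEC3G DNA deaminase activity, run while confirming APOBEC3A inhibitors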
# DNA dC->dU-editing enzyme APOBEC-3G, sequence (Q9HC16 whole entry): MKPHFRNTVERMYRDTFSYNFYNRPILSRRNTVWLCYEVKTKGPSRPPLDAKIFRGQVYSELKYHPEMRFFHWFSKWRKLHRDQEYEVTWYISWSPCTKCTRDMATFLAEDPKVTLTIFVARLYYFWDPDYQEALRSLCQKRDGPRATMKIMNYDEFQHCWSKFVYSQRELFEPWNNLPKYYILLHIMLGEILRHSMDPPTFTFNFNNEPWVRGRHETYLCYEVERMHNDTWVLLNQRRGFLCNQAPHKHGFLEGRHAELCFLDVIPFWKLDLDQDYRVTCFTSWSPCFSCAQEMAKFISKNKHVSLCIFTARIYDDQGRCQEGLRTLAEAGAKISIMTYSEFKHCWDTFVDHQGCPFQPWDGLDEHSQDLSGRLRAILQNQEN
# [11] = microbe, parasite or virus in culture; assay type: functional; conditions: Mycobacterium tuberculosis
# [12] = THP-1 cell cytotoxicity, dose response, cytotoxicity control for non-replicating M. tuberculosis project (AID 489025); assay type: functional
# [13] = HepG2 cell cytotoxicity, dose response, cytotoxicity control for non-replicating M. tuberculosis project (AID 489018); assay type: functional; conditions: Mycobacterium tuberculosis
# [14] = Vero E6 cell cytotoxicity, dose response, cytotoxicity control for non-replicating M. tuberculosis project, secondary assay (AID 492998); assay type: functional, VeroE6; conditions: Vero C1008
# cells = assay type: functional
# [15] = biological target: T4, Runt-related transcription factor 1/Core-binding factor subunit beta (Homo sapiens, UniProt Q01196+Q13951); experiment: inhibitors of RUNX1 Runt–CBFb-SMMHC binding, primary screen, biochemical, FRET, Cerulean-Runt, Venus-CBFb-SMMHC, uHTS (AID 1434); assay type: protein assay;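 note: partner is the CBFb-SMMHC leukemia fusion protein rather than wild-type CBFb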
# T4 sequence (Q01196 whole entry, the tested form may be a part): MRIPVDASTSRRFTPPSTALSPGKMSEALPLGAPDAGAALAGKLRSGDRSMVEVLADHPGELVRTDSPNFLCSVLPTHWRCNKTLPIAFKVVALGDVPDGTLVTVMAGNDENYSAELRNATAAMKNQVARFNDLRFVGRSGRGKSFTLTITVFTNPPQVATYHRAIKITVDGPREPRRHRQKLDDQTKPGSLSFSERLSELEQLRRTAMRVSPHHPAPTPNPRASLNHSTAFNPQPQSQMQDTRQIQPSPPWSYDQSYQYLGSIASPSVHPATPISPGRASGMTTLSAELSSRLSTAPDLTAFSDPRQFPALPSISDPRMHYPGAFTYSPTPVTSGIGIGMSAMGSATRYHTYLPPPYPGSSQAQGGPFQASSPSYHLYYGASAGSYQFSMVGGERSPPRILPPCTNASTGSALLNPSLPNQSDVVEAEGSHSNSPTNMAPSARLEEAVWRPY
# T4 sequence (Q13951 whole entry, the tested form may be a part): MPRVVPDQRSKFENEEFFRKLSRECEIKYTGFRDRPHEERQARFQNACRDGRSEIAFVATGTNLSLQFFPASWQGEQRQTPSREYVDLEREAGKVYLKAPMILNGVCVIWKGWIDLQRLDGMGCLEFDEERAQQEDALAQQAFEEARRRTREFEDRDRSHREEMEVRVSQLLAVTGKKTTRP
# [16] = biological target: T4, Runt-related transcription factor 1/Core-binding factor subunit beta; experiment: inhibitors of RUNX1 Runt–CBFb-SMMHC binding, biochemical, TR-FRET (AID 1438); assay type: protein assay
# Mu-type opioid receptor = Mu-type opioid receptor (Homo sapiens, UniProt P35372); experiment: SAR Analysis of Antagonists of the MOR Receptor using an Image-Based Assay - Set 3. [Related pubchem assays (depositor defined):AID1777, AID1785, AID1786, AID1966, AID2133, AID2136, AID2284, AID2285, AID2420]; assay type: functional
# Mu-type opioid receptor, sequence (P35372 whole entry): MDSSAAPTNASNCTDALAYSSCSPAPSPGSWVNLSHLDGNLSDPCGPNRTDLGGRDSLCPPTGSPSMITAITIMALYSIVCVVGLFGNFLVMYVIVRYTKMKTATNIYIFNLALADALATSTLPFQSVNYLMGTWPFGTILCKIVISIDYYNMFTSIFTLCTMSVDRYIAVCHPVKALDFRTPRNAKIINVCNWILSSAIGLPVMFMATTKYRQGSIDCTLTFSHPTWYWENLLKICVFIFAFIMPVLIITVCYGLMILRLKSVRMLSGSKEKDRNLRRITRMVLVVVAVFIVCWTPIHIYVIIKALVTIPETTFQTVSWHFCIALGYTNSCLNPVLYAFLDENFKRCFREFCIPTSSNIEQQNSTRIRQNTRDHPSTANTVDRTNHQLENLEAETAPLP
# [17] = biological target: Delta-type opioid receptor (Homo sapiens, UniProt P41143); experiment: SAR Analysis of Antagonists of the DOR Receptor using an Image-Based Assay - Set 3. [Related pubchem assays (depositor defined):AID1777, AID1785]; assay type: functional;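 note: U2OS cells expressing DOR1 and beta-arrestin GFP stimulated with 100 nM SNC80; imaging of GFP-tagged beta-arrestin moving into spots after receptor activation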
# [18] = biological target: T5, Kappa-type opioid receptor (Homo sapiens, UniProt P41145); experiment: SAR analysis of small molecule antagonists of the kappa opioid receptor via a luminescent beta-arrestin assay - Set 3. [Related pubchem assays (depositor defined):AID1777, AID1778, AID1785, AID1786, AID1966, AID2133, AID2136, AID2285, AID2495]; assay type: functional
# T5 sequence (P41145 whole entry): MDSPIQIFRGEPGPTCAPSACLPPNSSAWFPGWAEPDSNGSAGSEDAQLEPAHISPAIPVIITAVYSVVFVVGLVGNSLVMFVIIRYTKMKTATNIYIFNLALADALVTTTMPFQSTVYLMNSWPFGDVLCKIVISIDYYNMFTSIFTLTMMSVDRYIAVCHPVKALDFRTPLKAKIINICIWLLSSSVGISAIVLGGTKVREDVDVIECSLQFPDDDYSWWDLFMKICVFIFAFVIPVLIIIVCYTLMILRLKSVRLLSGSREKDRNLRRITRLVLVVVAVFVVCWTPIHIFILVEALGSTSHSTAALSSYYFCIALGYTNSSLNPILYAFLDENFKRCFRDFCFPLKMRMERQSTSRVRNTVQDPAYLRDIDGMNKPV
# [19] = biological target: T5, Kappa-type opioid receptor; experiment: SAR analysis of Antagonists of the Kappa Opioid Receptor (KOR) using an Image-Based Assay - Set 3. [Related pubchem assays (depositor defined):AID1777, AID1785]; assay type: functional
structure (smiles),measurement,setting,value
COc1cc(/C=C2\C(=O)NC(=O)N(c3ccccc3)C2=O)c([N+](=O)[O-])cc1OC,IC50,[1],> 50 µM (not active)
same,IC50,[2],3.41 µM (active)
same,IC50,Perilipin-1/ABHD5,3.29 µM (active)
same,IC50,Genome polyprotein,17.3 µM (active)
same,IC50,[3],53.9 µM (inactive)
same,IC50,[4],42.8 µM (inactive)
COC(=O)c1cc(-c2c[nH]c3ccccc23)[nH]n1,IC50,[5],> 100 µM (inactive)
same,IC50,[6],1.67 µM (active) and 906 nM (active)
COc1cc2c(cc1NC(=O)c1cccc([N+](=O)[O-])c1)oc1ccccc12,EC50,[7],> 100 µM (inactive)
same,IC50,[8],14.2 µM (active)
Cc1nc(O)c(C#N)c(C)c1CCC(=O)Nc1cc(S(C)(=O)=O)ccc1Cl,IC50,[9],9.97 µM (active)
same,IC50,[10],11.7 µM (active)
COc1cccc(-c2nnc(NC(=O)c3ccc(S(=O)(=O)N4CCOCC4)cc3)o2)c1,CC50,[11],19.7 µM (active)
same,CC50,[12],8.51 µM (active)
same,CC50,[13],13.9 µM (active)
same,CC50,[14],7.2 µM (active)
same,IC50,cells,22.8 µM (active)
Cc1cc(C)cc(Oc2nc3c(C)cccn3c(=O)c2/C=C(\C#N)C(=O)NC2CCS(=O)(=O)C2)c1 (stereo not drawn),IC50,[15],4.95 µM (active)
same,IC50,[16],68 µM (inactive)
O=C(Cn1c(=O)c2cccn2c2ccc(F)cc21)NCCCN1CCN(c2ccc(F)cc2)CC1,IC50,Mu-type opioid receptor,> 32 µM (inactive)
same,IC50,[17],> 32 µM (inactive)
same,IC50,[18],> 20 µM (inactive)
same,IC50,[19],14.6 µM (inactive)
